Data published in patent US20250059169A1, “PYRAZOLE-1(2H)-PHTHALAZINONE COMPOUND AND APPLICATION THEREOF” (MEDSHINE DISCOVERY INC., priority 2021, published 2025).
pIC50: −log10 of the molar value. Each block holds one compound with its values, some of them ahead of it.

Tests used:
HCT116 MTAP KO cells = assay: In vitro proliferation assay of HCT116 MTAP KO cells; format: cell-based; conditions: 10 days, 3D CellTiter-Glo
Protocol: (§1) McCoy's 5A medium, penicillin/streptomycin antibiotics, purchased from Wisent; fetal bovine serum, purchased from Biosera. 3D CellTiter-Glo (chemiluminescent cell viability assay reagent), purchased from Promega. HCT116 WT cell line, purchased from Nanjing Cobioer Biosciences Co., Ltd. HCT116 MTAP KO cell line, purchased from Horizon Discovery. Envision multilabel plate reader (PerkinElmer).
(§2) HCT116 WT and MTAP KO cells were seeded into an ultra-low attachment 96-well U-bottom plate at a density of 80 μL cell suspension per well containing 1000 HCT116 cells. The cell plate was incubated overnight in a CO2 incubator.
(§3) The test compound was serially diluted 5-fold across eight concentrations using a pipette, ranging from 2 mM to 25.6 nM, and tested in duplicate. 78 μL of medium per well was added to an intermediate plate. Subsequently, 2 μL of the serially diluted compound per well was transferred to the corresponding wells of the intermediate plate and mixed well. […] An additional cell plate was prepared to read the signal value on the day of compound addition, which served as the […] for data analysis.
(§4) The cell plate was added with 100 μL of chemiluminescent cell viability assay reagent per well and incubated at room temperature for 10 minutes to stabilize the luminescent signal. A multilabel microplate reader was used for reading. […]

HCT116 WT cells = assay: In vitro proliferation assay of HCT116 WT cells; format: cell-based; conditions: 10 days, 3D CellTiter-Glo
Protocol: as §1, §2, §3, §4

[1] = In vitro liver microsomal stability test, dog; format: in vitro ADME; conditions: Dog liver microsomes, 1 μM compound, 0.5 mg/mL
Protocol: (§5) Liver microsomes: Human and animal microsomes were purchased from Corning or Xenotech and stored in a −80° C. freezer.
(§6) Reduced nicotinamide adenine dinucleotide phosphate (NADPH), supplier: Chem-Impex International, Cat. No.: 00616.
(§7) Stock solution: 10 mM DMSO solution
(§8) Preparation of working concentration: The stock solution was diluted to 100 µM using 100% acetonitrile (organic phase content: 99% acetonitrile, 1% DMSO).
(§9) Two 96-well incubation plates were prepared and named as T60 incubation plate and NCF60 incubation plate.
(§10) 445 μL of microsomal working solution (liver microsomal protein concentration of 0.56 mg/mL) was added to both the T60 incubation plate and the NCF60 incubation plate.
(§11) The two incubation plates were pre-incubated in a 37° C. water bath for approximately 10 minutes.
(§12) After pre-incubation, 5 μL of the test compound or control compound working solution was added to both the T60 incubation plate and the NCF60 incubation plate and mixed well. 50 μL of potassium phosphate buffer per well was added to the NCF60 incubation plate to initiate the reaction. 180 μL of termination solution (acetonitrile solution containing 200 ng/mL tolbutamide and 200 ng/mL labetalol) and 6 μL of NADPH regeneration system working solution were added to a TO termination plate. […]

[2] = test system: human large cell lung cancer LU99 subcutaneous xenograft tumor; assay: In vivo efficacy test, LU99 subcutaneous xenograft tumor model; parameters: species or system BALB/c nude mice; conditions: for TGI: based on tumor volume on day 29
Protocol: To evaluate the tumor inhibitory effect of the compounds of the present disclosure on a human large cell lung cancer LU99 subcutaneous xenograft tumor model.
Female BALB/c nude mice were subcutaneously inoculated with the human large cell lung cancer LU99 cell line. After inoculation, the mice were randomly divided into groups based on body weight and tumor volume, with six animals per group, and were administered as described below.
Group 1 (vehicle group): When the tumor volume reached 207±9 mm^3 after inoculation, the mice were administered daily by gavage with the vehicle (5% DMSO/10% Solutol/85% double-distilled water) at a dose of 0.1 mL/10 g.
Group 2 (treatment group): When the tumor volume reached 207±10 mm^3 after inoculation, the mice were administered daily by gavage with the test compound (compound dissolved in 5% DMSO/10% Solutol/85% double-distilled water) at a dose of 12.5 mg/kg.
Group 3 (treatment group): When the tumor volume reached 207±10 mm^3 after inoculation, the mice were administered daily by gavage with the test compound (compound dissolved in 5% DMSO/10% Solutol/85% double-distilled water) at a dose of 25 mg/kg.
Group 4 (treatment group): When the tumor volume reached 207±14 mm^3 after inoculation, the mice were administered daily by gavage with the test compound (compound dissolved in 5% DMSO/10% Solutol/85% double-distilled water) at a dose of 50 mg/kg.
After the experimental grouping, the mice were weighed twice weekly, and the tumor diameters were measured using a vernier caliper. The tumor volume was calculated, and then the tumor growth inhibition (TGI) was calculated. On day 29 after experimental administration, the mice were euthanized and sampled. The calculation formulas are as follows:
Tumor volume=0.5×Length×Width^2
TGI (%)=[1−(Ti−T0)/(Ci−C0)]×100%, where Ti is the average tumor volume of a given administration group on a given day, T0 is the average tumor volume of the administration group at the start of administration, Ci is the average tumor volume of the control group on a given day (the same day as Ti), and C0 is the average tumor volume of the control group at the start of administration.

[3] = In vitro liver microsomal stability test, human; format: in vitro ADME; conditions: Human liver microsomes, 1 μM compound, 0.5 mg/mL
Protocol: as §5, §6, §7, §8, §9, §10, §11, §12

[4] = Pharmacokinetic testing in CD-1 mice; format: in vivo
Protocol: Experimental purpose: To test the pharmacokinetic properties of the compound of the present disclosure in CD-1 mice.
Experimental materials: CD-1 mice (female, 15 to 30 g, 6 to 9 weeks, Beijing Vital River Laboratory Animal Technology Co., Ltd.)
The pharmacokinetic characteristics of the compound in rodents were tested following intravenous injection and oral administration according to a standard protocol. In the experiment, the candidate compound was prepared as a clear solution for single intravenous injection and as a homogeneous suspension for single oral administration in mice. In the case of intravenous injection, the dose was 3 mg/kg, with the vehicle being 5% DMSO/10% Solutol/85% water. In the case of oral administration, the dose was 30 mg/kg, with the vehicle being 0.5% MC (4000 cps)/0.2% Tween-80. Whole blood samples were collected within 24 hours, centrifuged at 3000 g for 15 minutes at 4° C., and the supernatant was separated to obtain plasma samples. 20 times the volume of acetonitrile solution containing internal standard was added to precipitate the protein. The samples were vortexed for 10 minutes and centrifuged at 3220 g for 15 minutes at 4° C. The supernatant was transferred to a 96-well plate and centrifuged at 3220 g for 5 minutes at 4° C. The supernatant was then injected for LC-MS/MS analysis to quantify plasma concentration, and pharmacokinetic parameters were calculated.

[5] = In vitro liver microsomal stability test, rat; format: in vitro ADME; conditions: Rat liver microsomes, 1 μM compound, 0.5 mg/mL
Protocol: as §5, §6, §7, §8, §9, §10, §11, §12

[6] = Pharmacokinetic testing in Beagles; format: in vivo
Protocol: Experimental purpose: To test the pharmacokinetic properties of the compound of the present disclosure in Beagles.
Experimental materials: Beagles (male, >6 months old, Beijing Marshall Biotechnology Co., Ltd.)
The pharmacokinetic characteristics of the compound in dogs were tested following intravenous injection and oral administration according to a standard protocol. In the experiment, the test compound was prepared as a clear solution for single intravenous injection and single oral administration in dogs. In the case of intravenous injection, the dose was 2 mg/kg, with the vehicle being 5% DMSO/10% Solutol/85% water. In the case of oral administration, the dose was 10 mg/kg, with the vehicle being 5% DMSO/10% Solutol/85% water. Whole blood samples were collected within 48 hours, centrifuged at 3000 g for 15 minutes at 4° C., and the supernatant was separated to obtain plasma samples. 20 times the volume of acetonitrile solution containing internal standard was added to precipitate the protein. The samples were vortexed for 10 minutes and centrifuged at 3220 g for 15 minutes at 4° C. The supernatant was transferred to a 96-well plate and centrifuged at 3220 g for 5 minutes at 4° C. The supernatant was then injected for LC-MS/MS analysis to quantify plasma concentration, and pharmacokinetic parameters were calculated.

pIC50 (HCT116 MTAP KO cells): 8.10
pIC50 (HCT116 WT cells): < 5.00
SMILES: Cn1ncc(-c2ccc3c(=O)[nH]nc(CN)c3c2)c1-c1c(F)c(Cl)cc(OC2(C)CC2)c1C#N (single isomer, unassigned) [Compound 1A]

pIC50 (HCT116 MTAP KO cells): 8.13
pIC50 (HCT116 WT cells): 5.33
SMILES: Cn1ncc(-c2ccc3c(=O)[nH]nc(CN)c3c2)c1-c1c(F)c(Cl)cc(OC2(C)CC2)c1C#N (single isomer, unassigned) [Compound 3A]

Liver microsomal stability CLint [1]: 47.7 mL/min/kg
Liver microsomal stability CLint [3]: 20.4 mL/min/kg
Clearance Cl ([4]; intravenous injection 3 mg/kg): 30.0 mL/min/kg
Half-life T1/2 ([4]; intravenous injection 3 mg/kg): 1.29 h
Bioavailability F ([4]; oral 30 mg/kg): 46.8%
Concentration integral AUC0-last ([4]; oral 30 mg/kg): 16.059 µM·h
Liver microsomal stability CLint [5]: 53.6 mL/min/kg
Clearance ([6]; intravenous injection 2 mg/kg): 4.29 mL/min/kg
Half-life T1/2 ([6]; intravenous injection 2 mg/kg): 5.90 h
Bioavailability F ([6]; oral 10 mg/kg): 113%
Plasma concentration integral AUC0-last ([6]; oral 10 mg/kg): 91.502 µM·h
SMILES: [2H]C([2H])([2H])n1ncc(-c2ccc3c(=O)[nH]nc(CN)c3c2)c1-c1c(F)c(Cl)cc(OC2(C)CC2)c1C#N [Compound 3A]
Tumor volume ([2]; 12.5 mg/kg daily by gavage, Day 0): 207 mm^3
Tumor volume ([2]; 12.5 mg/kg daily by gavage, Day 4): 253 mm^3
Tumor volume ([2]; 12.5 mg/kg daily by gavage, Day 8): 297 mm^3
Tumor volume ([2]; 12.5 mg/kg daily by gavage, Day 11): 331 mm^3
Tumor volume ([2]; 12.5 mg/kg daily by gavage, Day 15): 382 mm^3
Tumor volume ([2]; 12.5 mg/kg daily by gavage, Day 18): 440 mm^3
Tumor volume ([2]; 12.5 mg/kg daily by gavage, Day 22): 494 mm^3
Tumor volume ([2]; 12.5 mg/kg daily by gavage, Day 25): 565 mm^3
Tumor volume ([2]; 12.5 mg/kg daily by gavage, Day 29): 755 mm^3
TGI ([2]; 12.5 mg/kg daily by gavage): 66%
Tumor volume ([2]; 25 mg/kg daily by gavage, Day 0): 207 mm^3
Tumor volume ([2]; 25 mg/kg daily by gavage, Day 4): 254 mm^3
Tumor volume ([2]; 25 mg/kg daily by gavage, Day 8): 247 mm^3
Tumor volume ([2]; 25 mg/kg daily by gavage, Day 11): 240 mm^3
Tumor volume ([2]; 25 mg/kg daily by gavage, Day 15): 238 mm^3
Tumor volume ([2]; 25 mg/kg daily by gavage, Day 18): 248 mm^3
Tumor volume ([2]; 25 mg/kg daily by gavage, Day 22): 282 mm^3
Tumor volume ([2]; 25 mg/kg daily by gavage, Day 25): 363 mm^3
Tumor volume ([2]; 25 mg/kg daily by gavage, Day 29): 491 mm^3
TGI ([2]; 25 mg/kg daily by gavage): 83%
Tumor volume ([2]; 50 mg/kg daily by gavage, Day 0): 207 mm^3
Tumor volume ([2]; 50 mg/kg daily by gavage, Day 4): 239 mm^3
Tumor volume ([2]; 50 mg/kg daily by gavage, Day 8): 238 mm^3
Tumor volume ([2]; 50 mg/kg daily by gavage, Day 11): 209 mm^3
Tumor volume ([2]; 50 mg/kg daily by gavage, Day 15): 206 mm^3
Tumor volume ([2]; 50 mg/kg daily by gavage, Day 18): 193 mm^3
Tumor volume ([2]; 50 mg/kg daily by gavage, Day 22): 226 mm^3
Tumor volume ([2]; 50 mg/kg daily by gavage, Day 25): 273 mm^3
Tumor volume ([2]; 50 mg/kg daily by gavage, Day 29): 412 mm^3
TGI ([2]; 50 mg/kg daily by gavage): 87%
